# In publication PMC6213879, “Synthesis and Biological Evaluation of Novel Dehydroabietic Acid-Oxazolidinone Hybrids for Antitumor Properties” (International Journal of Molecular Sciences, 2018):
# Assays:
# [1] = system: NCI-H460 human lung cancer cell line; experiment: MTT cytotoxicity assay, NCI-H460; assay type: cell-based; details: Homo sapiens, NCI-H460, 48 h, mean ± SD from three independent experiments
# Protocol: (§1) The in vitro antiproliferative activity of the DHAA derivatives 3a–o and 4a–o against four human cancer cell lines (MGC-803 human gastric cancer cell line, CNE-2 human nasopharyngeal carcinoma cell line, SK-OV-3 human ovarian carcinoma cell line, NCI-H460 human lung cancer cell line) and the human normal liver cell line LO2 were evaluated by MTT (methyl thiazolytetrazolium) assay and compared with the parent compound DHAA and the positive control cisplatin in each panel.
# (§2) The cytotoxicity of the compounds was evaluated against NCI-H460, MGC-803, SK-OV-3, CNE-2 and LO2 using an MTT assay. Cells were grown on 96-well micro-plates at a density of 4 × 10^3 cells per well in DMEM (dulbecco’s modified eagle medium) medium with 10% FBS (fetal bovine serum). The plates were incubated at 37 °C with 5% CO2. The cells were then exposed to different concentrations of target compounds and cisplatin and incubated for another 48 h. Control wells were formed by culture media with the maximum concentration of DMSO used in each assay (1‰). The cells were stained with 20 µL of MTT in an incubator for about 4 h. The medium was thrown away and replaced by […] DMSO. The absorbance (OD) value was read at 490 nm on an enzyme labeling instrument. Each experiment was repeated at least three times to obtain the mean values.
# [2] = system: CNE-2 human nasopharyngeal carcinoma cell line; experiment: MTT cytotoxicity assay, CNE-2; assay type: cell-based; details: Homo sapiens, CNE-2, 48 h, mean ± SD from three independent experiments
# Protocol: as §1, §2
# [3] = system: SK-OV-3 human ovarian carcinoma cell line; experiment: MTT cytotoxicity assay, SK-OV-3; assay type: cell-based; details: Homo sapiens, SK-OV-3, 48 h, mean ± SD from three independent experiments
# Protocol: as §1, §2
# [4] = system: MGC-803 human gastric cancer cell line; experiment: MTT cytotoxicity assay, MGC-803; assay type: cell-based; details: Homo sapiens, MGC-803, 48 h, mean ± SD from three independent experiments
# Protocol: as §1, §2
# [5] = system: human normal liver cell line LO2; experiment: MTT cytotoxicity assay, normal LO2 cells; assay type: cell-based; details: Homo sapiens, L02, 48 h, mean ± SD from three independent experiments
# Protocol: as §1, §2
# MGC-803 cells [6] = experiment: Hoechst 33258 staining assay; assay type: cell-based, human; details: 48 h
# Protocol: Hoechst 33258 is a dye that is utilized to identify the transitions of a cell’s nuclear morphology. To determine the morphological changes induced by compound 4j in MGC-803 cells, Hoechst 33258 staining was carried out. MGC-803 cells were treated with various concentrations (0, 1.0, 5.0, 10 µM) of compound 4j for 48 h, and stained with Hoechst 33258.
# Cells grown on a sterile cover slip in six-well plates were treated with different concentrations of the test compound for 48 h. The culture medium containing compounds was removed, and the cells were fixed in 4% paraformaldehyde for 10 min. After being washed twice with PBS, the cells were stained with 0.5 mL of Hoechst 33258 (Beyotime, Shanghai, China) for 5 min, and then again washed twice with PBS. The stained nuclei were observed under an OLYMPUS 1X73 fluorescence microscope using 350 nm for excitation and 460 nm for emission.
# MGC-803 cells [7] = experiment: Cell cycle analysis by PI staining and flow cytometry; assay type: cell-based, human; details: MGC-803, 48 h
# Protocol: To determine the possible role of cell cycle arrest in 4j-induced growth inhibition, MGC-803 cells were treated with different concentrations of compound 4j for 48 h. The cell cycle distribution was investigated by flow cytometric analysis following the staining of DNA with propidium iodide (PI).
# The MGC-803 cell line was treated with different concentrations of compound 4j. After 48 h of incubation, cells were washed twice with ice-cold PBS, fixed and permeabilized with ice-cold 70% ethanol at −20 °C overnight. The cells were treated with 100 µg /mL RNase A at 37 °C for 30 min, after being washed with ice-cold PBS, and finally stained with 1 mg/mL propidium iodide (PI) (BD, Pharmingen) in the dark at 4 °C for 30 min. Analysis was performed with the system software (Cell Quest; BD Biosciences, Becton Dickinson FACSAriaIII, NY, USA).
# [8] = system: MGC-803, CNE-2, SK-OV-3, NCI-H460; experiment: MTT cytotoxicity assay, summary over the four cancer cell lines; assay type: cell-based; details: Homo sapiens; range over MGC-803, CNE-2, SK-OV-3, NCI-H460; read-out: IC50 values ranging against all the test cell lines
# Protocol: as §1, §2
# MGC-803 cells [9] = experiment: Apoptosis analysis, Annexin-V/FITC and PI, flow cytometry; assay type: cell-based, human; details: 48 h, control 9.3%
# Protocol: In order to further confirm whether the 4j-induced reduction in cell viability was responsible for the induction of apoptosis, MGC-803 cells were investigated using the PI and Annexin-V/FITC (fluorescein isothiocyanate) and the number of apoptotic cells was estimated by flow cytometry, after the treatment of the MGC-803 cells at concentrations of 5 and 10 µM for 48 h. The results are illustrated in Figure 2.
# MGC-803 cells were seeded at a concentration of 2 × 10^6 cells/mL of the DMEM medium with 10% FBS on 6-well plates to the final volume of 2 mL, and then treated with compound 4j at different concentrations for 48 h. After 48 h, the cells were collected and washed twice with PBS and then resuspended in 100 µL 1 × binding buffer, The cells were subjected to 5 µL of FITC Annexin V and 5 µL propidium iodide (PI) staining using an annexin-V FITC apoptosis kit (BD, Pharmingen) and incubated for 30 min at RT (25 °C) in the dark. Then, 100µL 1× binding buffer were added. The apoptosis ratio was quantified by system software (Cell Quest; BD Biosciences, Becton Dickinson FACSAriaIII, NY, USA).
melting point,SMILES,IC50 [1],IC50 [2],IC50 [3],IC50 [4],IC50 [5],nuclear morphological changes (Hoechst 33258) (MGC-803 cells [6]; 10.0 µM),nuclear morphological changes (Hoechst 33258) (MGC-803 cells [6]; 1.0 and 5.0 µM),cell cycle arrest (MGC-803 cells [7]),IC50 [8],percentage of all apoptotic cells (early and late) (MGC-803 cells [9]; 5 µM),percentage of all apoptotic cells (early and late) (MGC-803 cells [9]; 10 µM)
125.2 to 130.4 °C,"C#Cc1cccc(N2CC(COC(=O)[C@]3(C)CCC[C@]4(C)c5ccc(C(C)C)cc5CCC34)OC2=O)c1 (stereo partly drawn) [Compound 4o, (1R,4aS)-(3-(3-Ehynylphenyl)-2-Oxooxazolidin-5-yl)Methyl-7-Isopropyl-1,4a-Dimethyl-1,2,3,4,4a,9,10,10a-Octahydrophenanthrene-1-Carboxylate]",72.4 ± 1.07 µM,51.4 ± 5.06 µM,23.7 ± 2.02 µM,18.2 ± 2.36 µM,> 100 µM,–,–,–,–,–,–
170.6 to 172.5 °C,"CC(C)c1ccc2c(c1)CCC1[C@](C)(C(=O)OCC3CN(c4ccc(Cl)cc4)C(=O)O3)CCC[C@]21C (stereo partly drawn) [Compound 4l, (1R,4aS)-(3-(4-Chlorophenyl)-2-Oxooxazolidin-5-yl)Methyl-7-Isopropyl-1,4a-Dimethyl-1,2,3,4,4a,9,10,10a-Octahydrophenanthrene-1-Carboxylate]",26.55 ± 0.08 µM,27.6 ± 1.5 µM,15.7 ± 2.32 µM,5.82 ± 4.82 µM,44.5 ± 2.77 µM,–,–,–,–,–,–
112.8 to 117.5 °C,"CC(C)c1ccc2c(c1)CCC1[C@](C)(C(=O)OCC3CN(c4ccc(F)cc4)C(=O)O3)CCC[C@]21C (stereo partly drawn) [Compound 4j, (1R,4aS)-(3-(4-Fluorophenyl)-2-Oxooxazolidin-5-yl)Methyl-7-Isopropyl-1,4a-Dimethyl-1,2,3,4,4a,9,10,10a-Octahydrophenanthrene-1-Carboxylate]",8.44 ± 0.36 µM,17.8 ± 4.69 µM,4.66 ± 2.13 µM,3.82 ± 0.18 µM,> 100 µM,number of apoptotic nuclei significantly increased,some exhibited bright-blue fluorescence due to chromatin condensation,mainly arrested the MGC-803 cells in the G1 phase,3.82 to 17.8 µM,28.5%,34.3%

# Second part, the compound before the results:
SMILES,melting point,IC50 [1],IC50 [2],IC50 [3],IC50 [4],IC50 [5],nuclear morphological changes (Hoechst 33258) (MGC-803 cells [6]; 10.0 µM),nuclear morphological changes (Hoechst 33258) (MGC-803 cells [6]; 1.0 and 5.0 µM),cell cycle arrest (MGC-803 cells [7]),IC50 [8],percentage of all apoptotic cells (early and late) (MGC-803 cells [9]; 5 µM),percentage of all apoptotic cells (early and late) (MGC-803 cells [9]; 10 µM)
"CC(C)c1ccc2c(c1)CCC1[C@](C)(C(=O)OCC3CN(c4ccc(Br)cc4)C(=O)O3)CCC[C@]21C (stereo partly drawn) [Compound 4n, (1R,4aS)-(3-(4-Bromophenyl)-2-Oxooxazolidin-5-yl)Methyl-7-Isopropyl-1,4a-Dimethyl-1,2,3,4,4a,9,10,10a-Octahydrophenanthrene-1-Carboxylate]",–,30.2 ± 2.66 µM,42.5 ± 5.68 µM,> 100 µM,5.34 ± 3.45 µM,> 100 µM,–,–,–,–,–,–
"COc1ccccc1N1CC(COC(=O)[C@]2(C)CCC[C@]3(C)c4ccc(C(C)C)cc4CCC23)OC1=O (stereo partly drawn) [Compound 4e, (1R,4aS)-(3-(2-Methoxyphenyl)-2-Oxooxazolidin-5-yl)Methyl-7-Isopropyl-1,4a-Dimethyl-1,2,3,4,4a,9,10,10a-Octahydrophenanthrene-1-Carboxylate]",–,7.99 ± 6.35 µM,20.5 ± 0.97 µM,> 100 µM,13.2 ± 1.15 µM,40.6 ± 1.96 µM,–,–,–,–,–,–
"COc1cccc(N2CC(COC(=O)[C@]3(C)CCC[C@]4(C)c5ccc(C(C)C)cc5CCC34)OC2=O)c1 (stereo partly drawn) [Compound 4f, (1R,4aS)-(3-(3-Methoxyphenyl)-2-Oxooxazolidin-5-yl)Methyl-7-Isopropyl-1,4a-Dimethyl-1,2,3,4,4a,9,10,10a-Octahydrophenanthrene-1-Carboxylate]",–,17.2 ± 1.38 µM,23.5 ± 1.2 µM,43 ± 1.05 µM,19.7 ± 2.8 µM,> 100 µM,–,–,–,–,–,–
